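Step 1: Grow cells in 96-well plates. Step 2: Expose to compound for 48 hours at 5 concentrations. Step 3: Interpolate endpoints linearly; if unreached, use highest concentration. GI50 marks 50% less growth.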 Activity calls are given as the source filed them. Rule as the data show it: active = GI50 up to about 1.1 µM and inactive = higher.
Assays:
Test in all cases: NCI tumour cell line growth inhibition, 48 h
Malme-3M = tested on: Malme-3M
BT-549 = tested on: BT-549
UACC-62 = tested on: UACC-62
Hs-578T = tested on: Hs-578T
MDA-N = tested on: MDA-N
ACHN = tested on: ACHN
OVCAR-5 = tested on: OVCAR-5
IGROV-1 = tested on: IGROV-1
SK-MEL-5 = tested on: SK-MEL-5
T47D = tested on: T47D
CAKI-1 = tested on: CAKI-1
NCI-H23 = tested on: NCI-H23
RPMI-8226 = tested on: RPMI-8226
MDA-MB-231 = tested on: MDA-MB-231
UACC-257 = tested on: UACC-257
SNB-19 = tested on: SNB-19
HL-60 = tested on: HL-60
SF-295 = tested on: SF-295
SK-MEL-2 = tested on: SK-MEL-2
OVCAR-4 = tested on: OVCAR-4

Row | SMILES | GI50 (Malme-3M) | GI50 (BT-549) | GI50 (UACC-62) | GI50 (Hs-578T) | GI50 (MDA-N) | GI50 (ACHN) | GI50 (OVCAR-5) | GI50 (IGROV-1) | GI50 (SK-MEL-5) | GI50 (T47D) | GI50 (CAKI-1) | GI50 (NCI-H23) | GI50 (RPMI-8226) | GI50 (MDA-MB-231) | GI50 (UACC-257) | GI50 (SNB-19) | GI50 (HL-60) | GI50 (SF-295) | GI50 (SK-MEL-2) | GI50 (OVCAR-4)
1 | O=C(c1ccccc1)c1ccc2c(c1)nc1n2C(c2c(Cl)cccc2Cl)SC1 (stereo not drawn) | 97.5 µM (inactive) | 77.1 µM (inactive) | 74.1 µM (inactive) | 84.1 µM (inactive) | 41.7 µM (inactive) | 71.6 µM (inactive) | > 100 µM (inactive) | > 100 µM (inactive) | 27.5 µM (inactive) | 14.7 µM (inactive) | 70.6 µM (inactive) | 47.4 µM (inactive) | 52.4 µM (inactive) | > 100 µM (inactive) | 95.5 µM (inactive) | 77.1 µM (inactive) | 39.4 µM (inactive) | 27.6 µM (inactive) | > 100 µM (inactive) | 75.7 µM (inactive)
2 | CC1=C(C(=O)OCCc2ccc([N+](=O)[O-])cc2)C(c2ccccc2C(F)(F)F)C(C(=O)OC(C)C)=C(C)N1 (stereo not drawn) | 3.49 µM (inactive) | 3.21 µM (inactive) | 3.22 µM (inactive) | 2.12 µM (inactive) | 4.33 µM (inactive) | 3.06 µM (inactive) | 16.1 µM (inactive) | 4.88 µM (inactive) | 1.64 µM (inactive) | 3.12 µM (inactive) | 2.9 µM (inactive) | 3.7 µM (inactive) | 3.1 µM (inactive) | 3.79 µM (inactive) | 3.86 µM (inactive) | 4.85 µM (inactive) | 1.79 µM (inactive) | 2.68 µM (inactive) | 2.64 µM (inactive) | 38 µM (inactive)
3 | O=C1c2ccccc2C(=O)c2c(NCC3CO3)cccc21 (stereo not drawn) | > 80.5 µM (inactive) | 19 µM (inactive) | 16 µM (inactive) | 38.4 µM (inactive) | 8.99 µM (inactive) | 8.67 µM (inactive) | > 71.3 µM (inactive) | 17.4 µM (inactive) | 22.6 µM (inactive) | > 100 µM (inactive) | 4.75 µM (inactive) | 9.44 µM (inactive) | 33.2 µM (inactive) | 15.2 µM (inactive) | > 56.2 µM (inactive) | > 57.3 µM (inactive) | 5.27 µM (inactive) | 26.5 µM (inactive) | 17.2 µM (inactive) | > 86.1 µM (inactive)
4 | Cc1c(C)c2c(c(N)c1C#N)C(=O)N(CCN1CCNCC1)C2=O | 22.6 µM (inactive) | 35.2 µM (inactive) | 23.2 µM (inactive) | 28.8 µM (inactive) | 40.9 µM (inactive) | 25.6 µM (inactive) | 31.1 µM (inactive) | 34.7 µM (inactive) | > 10 µM (inactive) | 36.4 µM (inactive) | 42 µM (inactive) |  | 38 µM (inactive) | 19.3 µM (inactive) | 37.7 µM (inactive) | 49.3 µM (inactive) | 28.4 µM (inactive) | 31.5 µM (inactive) | 35.9 µM (inactive) | 40.2 µM (inactive)
5 | COC(=O)CC1C(COC(C)=O)OC(n2cc(C)c(=O)[nH]c2=O)C1OC(C)=O (stereo not drawn) | > 100 µM (inactive) | > 100 µM (inactive) | > 100 µM (inactive) | 4.73 µM (inactive) | > 100 µM (inactive) | > 100 µM (inactive) | > 100 µM (inactive) | > 100 µM (inactive) | > 100 µM (inactive) | > 100 µM (inactive) | > 100 µM (inactive) | > 100 µM (inactive) | > 100 µM (inactive) | > 100 µM (inactive) | > 100 µM (inactive) | > 100 µM (inactive) | > 100 µM (inactive) | > 100 µM (inactive) | > 100 µM (inactive) | > 100 µM (inactive)
6 | Cc1ccc([N+](=O)[O-])cc1S(=O)(=O)Nc1ccc(C2=NNC(c3ccccc3)C2)cc1 (stereo not drawn) | 17 µM (inactive) | 18.4 µM (inactive) | 9.33 µM (inactive) | 22.5 µM (inactive) | 23.9 µM (inactive) | 16.3 µM (inactive) | 53.2 µM (inactive) | 16.3 µM (inactive) | 14.7 µM (inactive) | 4.23 µM (inactive) | 11.9 µM (inactive) | 15.8 µM (inactive) | 7.24 µM (inactive) | 15.3 µM (inactive) | 15.8 µM (inactive) | 30.9 µM (inactive) | 16.4 µM (inactive) | 3.02 µM (inactive) | 18.5 µM (inactive) | 14.5 µM (inactive)
7 | O=C1CC(c2cccc([N+](=O)[O-])c2)C2(C(=O)NC(=S)NC2=O)C(c2cccc([N+](=O)[O-])c2)C1 (stereo not drawn) | 11.6 µM (inactive) | 26.2 µM (inactive) | 23.2 µM (inactive) | 22.8 µM (inactive) | 43 µM (inactive) | 72.1 µM (inactive) | 39.9 µM (inactive) | 31.3 µM (inactive) | 82.2 µM (inactive) | 81.3 µM (inactive) | 12.9 µM (inactive) | 29.2 µM (inactive) | 59.7 µM (inactive) | 16.6 µM (inactive) | 89.7 µM (inactive) | 21.8 µM (inactive) | 40.3 µM (inactive) | 34 µM (inactive) | 35.9 µM (inactive) | 37.4 µM (inactive)
8 | CC1(C)C2CC(=O)C1(C)C(O)C2Br (stereo not drawn) | > 100 µM (inactive) | > 100 µM (inactive) | > 100 µM (inactive) | 98.2 µM (inactive) | > 100 µM (inactive) | > 100 µM (inactive) | > 100 µM (inactive) | > 100 µM (inactive) | > 100 µM (inactive) | > 100 µM (inactive) |  | > 100 µM (inactive) |  | > 100 µM (inactive) |  | > 100 µM (inactive) | > 100 µM (inactive) | > 100 µM (inactive) | > 100 µM (inactive) | 
9 | O=[N+]([O-])c1ccc2nc(O)n[n+]([O-])c2c1 | > 100 µM (inactive) | > 100 µM (inactive) | > 100 µM (inactive) | > 100 µM (inactive) | > 100 µM (inactive) | > 100 µM (inactive) | > 100 µM (inactive) | > 100 µM (inactive) | > 100 µM (inactive) | > 100 µM (inactive) |  | > 100 µM (inactive) | 97.9 µM (inactive) | > 100 µM (inactive) | > 100 µM (inactive) | > 100 µM (inactive) | > 100 µM (inactive) | > 100 µM (inactive) | > 100 µM (inactive) | > 100 µM (inactive)
10 | Oc1cccc(-c2cc(O)c3cc4c(cc3n2)OCO4)c1 | 0.352 µM (active) | 0.867 µM (active) | 2.42 µM (inactive) | 0.457 µM (active) | 0.231 µM (active) | 5.85 µM (inactive) | > 100 µM (inactive) | 4.98 µM (inactive) | 1.46 µM (inactive) | 23.7 µM (inactive) |  | 4.3 µM (inactive) | 4.03 µM (inactive) | 1.92 µM (inactive) | > 26.1 µM (inactive) | 3.84 µM (inactive) | 1.26 µM (inactive) | 5.74 µM (inactive) | 0.851 µM (active) | > 100 µM (inactive)
11 | C=CCOCn1ccc(=O)[nH]c1=O | 94.4 µM (inactive) | > 100 µM (inactive) | > 100 µM (inactive) | > 100 µM (inactive) | > 100 µM (inactive) | > 100 µM (inactive) |  | > 100 µM (inactive) | > 100 µM (inactive) | > 100 µM (inactive) | > 100 µM (inactive) | > 100 µM (inactive) | > 100 µM (inactive) | > 100 µM (inactive) | > 100 µM (inactive) | > 100 µM (inactive) | > 100 µM (inactive) | > 100 µM (inactive) |  | 
12 | Cc1n[nH]c(=O)n1/N=C/c1ccc([N+](=O)[O-])cc1 | > 100 µM (inactive) | > 100 µM (inactive) | > 100 µM (inactive) | 78 µM (inactive) | > 100 µM (inactive) | > 100 µM (inactive) | > 100 µM (inactive) |  | > 100 µM (inactive) | > 100 µM (inactive) | 30.1 µM (inactive) | > 100 µM (inactive) | > 100 µM (inactive) | > 100 µM (inactive) | > 100 µM (inactive) |  | > 100 µM (inactive) | > 100 µM (inactive) | > 100 µM (inactive) | > 100 µM (inactive)
13 | CN1C(=O)C(c2c[nH]c3ccccc23)N(C)C(=O)C1c1c[nH]c2ccccc12 (stereo not drawn) | > 100 µM (inactive) | > 100 µM (inactive) | > 100 µM (inactive) | 62.1 µM (inactive) | > 100 µM (inactive) | 72.8 µM (inactive) | > 100 µM (inactive) | > 100 µM (inactive) | > 100 µM (inactive) | > 100 µM (inactive) | > 100 µM (inactive) | > 100 µM (inactive) |  | 34.2 µM (inactive) | > 100 µM (inactive) | > 10 µM (inactive) | > 100 µM (inactive) | > 100 µM (inactive) |  | > 100 µM (inactive)
14 | Nc1cccc(-c2cc(O)c3cc4c(cc3n2)OCO4)c1 | 0.318 µM (active) | > 100 µM (inactive) | 0.402 µM (active) | 0.389 µM (active) | 0.216 µM (active) | 3.87 µM (inactive) | > 100 µM (inactive) |  | 0.427 µM (active) | > 100 µM (inactive) | 3.68 µM (inactive) | 2.86 µM (inactive) | 6.35 µM (inactive) | 1.73 µM (inactive) |  | 2.19 µM (inactive) | 1.93 µM (inactive) | 2.87 µM (inactive) | 0.45 µM (active) | > 61.9 µM (inactive)
15 | CSc1cc(Cl)c(C(=O)Nc2ccccc2)cc1S(=O)(=O)n1ccnc1O | > 100 µM (inactive) | > 100 µM (inactive) | > 100 µM (inactive) | > 100 µM (inactive) | > 100 µM (inactive) | > 100 µM (inactive) | > 100 µM (inactive) | > 100 µM (inactive) | > 100 µM (inactive) | > 100 µM (inactive) | > 100 µM (inactive) | > 100 µM (inactive) | > 100 µM (inactive) | > 100 µM (inactive) | > 100 µM (inactive) | > 100 µM (inactive) | > 100 µM (inactive) |  | > 100 µM (inactive) | > 100 µM (inactive)
